From patent US11702404B2, “GLP-1R modulating compounds” (priority 2019, dated 2023)

Assays:
[1] = Microsomal stability, human liver microsomes (predicted hepatic clearance); details: predicted from in vitro microsomal stability data
[2] = molecular target: GLP-1R (Homo sapiens, UniProt P43220); assay: GLP-1R activation: cAMP increase in CHO cells stably expressing GLP-1R; format: cell-based; details: cAMP increase, CHO cells stably expressing GLP-1R, 10 point dose response, 30 minutes incubation; read-out: EC50
Chain of GLP-1R (P43220 24-463): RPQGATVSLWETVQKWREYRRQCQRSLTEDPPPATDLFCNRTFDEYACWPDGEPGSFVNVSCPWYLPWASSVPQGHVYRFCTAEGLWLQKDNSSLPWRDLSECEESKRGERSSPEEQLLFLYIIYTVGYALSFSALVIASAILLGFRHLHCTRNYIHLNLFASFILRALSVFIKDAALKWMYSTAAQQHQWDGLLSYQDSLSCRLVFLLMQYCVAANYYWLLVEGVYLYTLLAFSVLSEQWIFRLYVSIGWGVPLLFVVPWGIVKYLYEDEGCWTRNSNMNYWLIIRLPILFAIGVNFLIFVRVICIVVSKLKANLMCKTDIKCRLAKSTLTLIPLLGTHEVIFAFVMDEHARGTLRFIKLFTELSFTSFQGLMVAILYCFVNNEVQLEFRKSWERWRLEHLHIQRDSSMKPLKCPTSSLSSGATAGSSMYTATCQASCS

## N#Cc1cc(F)c(COc2ncc(F)c(-c3cc(F)c(Cc4nc5c(F)cc(C(=O)O)cc5n4C[C@@H]4CCO4)cc3F)n2)cc1F [Example 885]
[1]
  Predicted Hepatic Clearance (Pred. Cl.): 9.17 mL/min/kg
[2]
  EC50: 0.22 nM

## N#Cc1ccc(COc2cccc(-c3cc(F)c(Cc4nc5ccc(C(=O)O)cc5n4Cc4ccon4)cc3F)n2)c(F)c1 [Example 486, 2-(4-(6-((4-cyano-2-fluorobenzyl)oxy)pyridin-2-yl)-2,5-difluorobenzyl)-1-(isoxazol-3-ylmethyl)-1H-benzo[d]imidazole-6-carboxylic acid]
[1]
  Predicted Hepatic Clearance (Pred. Cl.): 5 mL/min/kg
[2]
  EC50: 1.05 nM

## N#CCC1(Cn2c(Cc3cc(F)c(-c4ccnc(OCc5ccc(Cl)cc5F)n4)cc3F)nc3ccc(C(=O)O)cc32)CC1 [Example 442, 2-(4-(2-((4-chloro-2-fluorobenzyl)oxy)pyrimidin-4-yl)-2,5-difluorobenzyl)-1-((1-(cyanomethyl)cyclopropyl)methyl)-1H-benzo[d]imidazole-6-carboxylic acid]
[1]
  Predicted Hepatic Clearance (Pred. Cl.): 3.67 mL/min/kg
[2]
  EC50: 0.14 nM

## N#Cc1ccc(COc2nccc(-c3ccc(Cc4nc5c(F)cc(C(=O)O)cc5n4C[C@@H]4CCO4)cc3F)n2)c(F)c1 [Example 369, (S)-2-(4-(2-((4-cyano-2-fluorobenzyl)oxy)pyrimidin-4-yl)-3-fluorobenzyl)-4-fluoro-1-(oxetan-2-ylmethyl)-1H-benzo[d]imidazole-6-carboxylic acid]
[1]
  Predicted Hepatic Clearance (Pred. Cl.): 4.33 mL/min/kg
[2]
  EC50: 0.13 nM

## N#Cc1ccc(COc2cccc(-c3cc(F)c(Cc4nc5ccc(C(=O)O)nc5n4CC4(CF)CC4)cc3F)n2)c(F)c1 [Example 440, 2-(4-(6-((4-cyano-2-fluorobenzyl)oxy)pyridin-2-yl)-2,5-difluorobenzyl)-3-((1-(fluoromethyl)cyclopropyl)methyl)-3H-imidazo[4,5-b]pyridine-5-carboxylic acid]
[1]
  Predicted Hepatic Clearance (Pred. Cl.): 5 mL/min/kg
[2]
  EC50: 2.12 nM

## COCCn1c(Cc2cc(F)c(-c3cccc(OCc4ccc(F)cc4F)n3)cc2F)nc2ccc(C(=O)O)cc21 [Example 815]
[1]
  Predicted Hepatic Clearance (Pred. Cl.): 1.83 mL/min/kg
[2]
  EC50: 2.49 nM

## N#Cc1ccc(COc2nc(-c3ccc(Cc4nc5ccc(C(=O)O)cc5n4C[C@@H]4CCO4)cc3F)ccc2F)c(F)c1 [Example 125, (S)-2-(4-(6-((4-cyano-2-fluorobenzyl)oxy)-5-fluoropyridin-2-yl)-3-fluorobenzyl)-1-(oxetan-2-ylmethyl)-1H-benzo[d]imidazole-6-carboxylic acid]
[1]
  Predicted Hepatic Clearance (Pred. Cl.): 2.58 mL/min/kg
[2]
  EC50: 0.34 nM

## COCCn1c(Cc2ccc(-c3nc(OCc4ccc(C#N)cc4F)ccc3C#N)cc2F)nc2ccc(C(=O)O)cc21 [Example 81, 2-(4-(3-cyano-6-((4-cyano-2-fluorobenzyl)oxy)pyridin-2-yl)-2-fluorobenzyl)-1-(2-methoxyethyl)-1H-benzo[d]imidazole-6-carboxylic acid]
[1]
  Predicted Hepatic Clearance (Pred. Cl.): 10.7 mL/min/kg
[2]
  EC50: 291 nM

## N#Cc1ccc(COc2cccc(-c3ccc(Cc4nc5c(F)cc(C(=O)O)cc5n4CC4(CF)CC4)cc3F)n2)c(F)c1 [Example 276, 2-(4-(6-((4-cyano-2-fluorobenzyl)oxy)pyridin-2-yl)-3-fluorobenzyl)-4-fluoro-1-((1-(fluoromethyl)cyclopropyl)methyl)-1H-benzo[d]imidazole-6-carboxylic acid]
[1]
  Predicted Hepatic Clearance (Pred. Cl.): 6.42 mL/min/kg
[2]
  EC50: 0.23 nM

## N#Cc1ccc(COc2cccc(-c3cc(F)c(Cc4nc5ccc(C(=O)O)cc5n4CC4(COC(F)F)CC4)cc3F)n2)c(F)c1 [Example 730]
[1]
  Predicted Hepatic Clearance (Pred. Cl.): 1.83 mL/min/kg
[2]
  EC50: 0.98 nM

## O=C(O)c1cc(F)c2nc(Cc3ccc(-c4cccc(OCc5ccc(C(F)F)cc5F)n4)cc3F)n(C[C@@H]3CCO3)c2c1 [Example 648]
[1]
  Predicted Hepatic Clearance (Pred. Cl.): 2.33 mL/min/kg
[2]
  EC50: 0.09 nM

## COCCn1c(Cc2ccc(-c3ccc(F)c(OCc4ccc(C#N)cc4F)n3)cc2F)nc2ccc(C(=O)O)cc21 [Example 87, 2-(4-(6-((4-cyano-2-fluorobenzyl)oxy)-5-fluoropyridin-2-yl)-2-fluorobenzyl)-1-(2-methoxyethyl)-1H-benzo[d]imidazole-6-carboxylic acid]
[1]
  Predicted Hepatic Clearance (Pred. Cl.): <1.83 mL/min/kg
[2]
  EC50: 5.66 nM

## CO[C@H](C)Cn1c(Cc2cc(F)c(-c3cccc(OCc4ccc(C#N)cc4F)n3)cc2F)nc2ccc(C(=O)O)cc21 [Example 588, (R)-2-(4-(6-((4-cyano-2-fluorobenzyl)oxy)pyridin-2-yl)-2,5-difluorobenzyl)-1-(2-methoxypropyl)-1H-benzo[d]imidazole-6-carboxylic acid]
[1]
  Predicted Hepatic Clearance (Pred. Cl.): 6.5 mL/min/kg
[2]
  EC50: 1.33 nM

## COCCn1c(Cc2ccc(-c3cccc(OCc4ccccc4SC)n3)cc2F)nc2ccc(C(=O)O)cc21 [Example 249, 2-(2-fluoro-4-(6-((2-(methylthio)benzyl)oxy)pyridin-2-yl)benzyl)-1-(2-methoxyethyl)-1H-benzo[d]imidazole-6-carboxylic acid]
[1]
  Predicted Hepatic Clearance (Pred. Cl.): 15.5 mL/min/kg
[2]
  EC50: 172 nM

## O=C(O)c1ccc2nc(Cc3ccc(-c4ccc(F)c(OCc5ccc(C(F)F)cc5F)n4)cc3F)n(C[C@@H]3CCO3)c2c1 [Example 773]
[1]
  Predicted Hepatic Clearance (Pred. Cl.): 1.83 mL/min/kg
[2]
  EC50: 0.12 nM

## CC1(Cn2c(Cc3ccc(-c4cccc(OCc5ccc(C#N)cc5F)n4)cc3F)nc3ccc(C(=O)O)cc32)CCO1 (centres unmarked) [Example 365, 2-(4-(6-((4-cyano-2-fluorobenzyl)oxy)pyridin-2-yl)-2-fluorobenzyl)-1-((2-methyloxetan-2-yl)methyl)-1H-benzo[d]imidazole-6-carboxylic acid]
[1]
  Predicted Hepatic Clearance (Pred. Cl.): 4.67 mL/min/kg
[2]
  EC50: 0.6 nM

## N#Cc1ccc(COc2cccc(-c3cc(F)c(Cc4nc5ccc(C(=O)O)cc5n4C[C@@H]4COCCO4)cc3F)n2)c(F)c1 [Example 642]
[1]
  Predicted Hepatic Clearance (Pred. Cl.): 2.67 mL/min/kg
[2]
  EC50: 5.14 nM

## COCCn1c(Cc2c(F)cc(-c3ccnc(OCc4ccc(C#N)cc4F)n3)c(F)c2F)nc2ccc(C(=O)O)cc21 [Example 405, 2-(4-(2-((4-cyano-2-fluorobenzyl)oxy)pyrimidin-4-yl)-2,3,6-trifluorobenzyl)-1-(2-methoxyethyl)-1H-benzo[d]imidazole-6-carboxylic acid]
[1]
  Predicted Hepatic Clearance (Pred. Cl.): 5.5 mL/min/kg
[2]
  EC50: 1.71 nM

## COCCn1c(Cc2ccc(-c3cccc(OCc4cc(F)c(Cl)cc4OC)n3)cc2F)nc2ccc(C(=O)O)cc21 [Example 481, 2-(4-(6-((4-chloro-5-fluoro-2-methoxybenzyl)oxy)pyridin-2-yl)-2-fluorobenzyl)-1-(2-methoxyethyl)-1H-benzo[d]imidazole-6-carboxylic acid]
[1]
  Predicted Hepatic Clearance (Pred. Cl.): <1.83 mL/min/kg
[2]
  EC50: 2.9 nM

## COCCn1c(Cc2cc(F)c(-c3cccc(OCc4ccc(Cl)c(F)c4F)n3)cc2F)nc2ccc(C(=O)O)cc21 [Example 802]
[1]
  Predicted Hepatic Clearance (Pred. Cl.): 2.33 mL/min/kg
[2]
  EC50: 3.64 nM

## O=C(O)c1cc(F)c2nc(Cc3cc(F)c(-c4cccc(OCc5ccc(C(F)F)cc5F)n4)cc3F)n(C[C@@H]3CCO3)c2c1 [Example 643]
[1]
  Predicted Hepatic Clearance (Pred. Cl.): 5 mL/min/kg
[2]
  EC50: 0.03 nM

## COCCn1c(Cc2ccc(-c3cccc(OCc4ccc(C#N)cc4F)n3)cc2-c2ccsc2)nc2ccc(C(=O)O)cc21 [Example 176, 2-(4-(6-((4-cyano-2-fluorobenzyl)oxy)pyridin-2-yl)-2-(thiophen-3-yl)benzyl)-1-(2-methoxyethyl)-1H-benzo[d]imidazole-6-carboxylic acid]
[1]
  Predicted Hepatic Clearance (Pred. Cl.): <1.83 mL/min/kg
[2]
  EC50: 273 nM

## O=C(O)c1ccc2nc(Cc3cc(F)c(-c4ccnc(OCc5ccc(Cl)cc5F)n4)cc3F)n(CC3(CF)CC3)c2n1 [Example 120, 2-(4-(2-((4-chloro-2-fluorobenzyl)oxy)pyrimidin-4-yl)-2,5-difluorobenzyl)-3-((1-(fluoromethyl)cyclopropyl)methyl)-3H-imidazo[4,5-b]pyridine-5-carboxylic acid]
[1]
  Predicted Hepatic Clearance (Pred. Cl.): <1.83 mL/min/kg
[2]
  EC50: 1.24 nM

## COCCn1c(Cc2cc(F)c(-c3cccc(OCc4cc(C)c(C(F)(F)F)cc4F)n3)cc2F)nc2ccc(C(=O)O)cc21 [Example 871]
[1]
  Predicted Hepatic Clearance (Pred. Cl.): 2 mL/min/kg
[2]
  EC50: 30.8 nM

## COCCn1c(Cc2ccc(-c3cccc(OCc4ccc(C#N)cc4F)n3)cc2C(F)(F)F)nc2ccc(C(=O)O)cc21 [Example 172, 2-(4-(6-((4-cyano-2-fluorobenzyl)oxy)pyridin-2-yl)-2-(trifluoromethyl)benzyl)-1-(2-methoxyethyl)-1H-benzo[d]imidazole-carboxylic acid]
[1]
  Predicted Hepatic Clearance (Pred. Cl.): 9.5 mL/min/kg
[2]
  EC50: 38 nM

## COc1cc(C#N)ccc1COc1cccc(-c2ccc(Cc3nc4ccc(C(=O)O)cc4n3CC3(CF)CC3)c(F)c2)n1 [Example 367, 2-(4-(6-((4-cyano-2-methoxybenzyl)oxy)pyridin-2-yl)-2-fluorobenzyl)-1-((1-(fluoromethyl)cyclopropyl)methyl)-1H-benzo[d]imidazole-6-carboxylic acid]
[1]
  Predicted Hepatic Clearance (Pred. Cl.): 10.8 mL/min/kg
[2]
  EC50: 0.86 nM

## COCCn1c(Cc2ccc(-c3cccc(OCc4ccc(C#N)cc4F)n3)cc2C#CC2(C)COC2)nc2ccc(C(=O)O)cc21 [Example 232, 2-(4-(6-((4-cyano-2-fluorobenzyl)oxy)pyridin-2-yl)-2-((3-methyloxetan-3-yl)ethynyl)benzyl)-1-(2-methoxyethyl)-1H-benzo[d]imidazole-6-carboxylic acid]
[1]
  Predicted Hepatic Clearance (Pred. Cl.): 18.7 mL/min/kg
[2]
  EC50: 17.8 nM

## COCCn1c(Cc2ccc(-c3nc(OCc4ccc(C#N)cc4F)ncc3F)cc2F)nc2ccc(C(=O)O)cc21 [Example 358, 2-(4-(2-((4-cyano-2-fluorobenzyl)oxy)-5-fluoropyrimidin-4-yl)-2-fluorobenzyl)-1-(2-methoxyethyl)-1H-benzo[d]imidazole-6-carboxylic]
[1]
  Predicted Hepatic Clearance (Pred. Cl.): 6.5 mL/min/kg
[2]
  EC50: 33.1 nM
